Laboratory results: patent publication US6596719B1 (Actelio Pharmaceuticals Ltd., priority 1999, dated 2003)
Where two headings read alike, the source gives them in different places.

Legend:
[1] = target: T1, human recombinant ETA receptors (Homo sapiens, UniProt P25101); assay: Inhibition of endothelin binding to membranes from CHO cells carrying human ET receptors (ETA)
T1 construct: expressed in transfected cells; host or cells: CHO cells (microsomal membranes)
T1 sequence (P25101 21-427): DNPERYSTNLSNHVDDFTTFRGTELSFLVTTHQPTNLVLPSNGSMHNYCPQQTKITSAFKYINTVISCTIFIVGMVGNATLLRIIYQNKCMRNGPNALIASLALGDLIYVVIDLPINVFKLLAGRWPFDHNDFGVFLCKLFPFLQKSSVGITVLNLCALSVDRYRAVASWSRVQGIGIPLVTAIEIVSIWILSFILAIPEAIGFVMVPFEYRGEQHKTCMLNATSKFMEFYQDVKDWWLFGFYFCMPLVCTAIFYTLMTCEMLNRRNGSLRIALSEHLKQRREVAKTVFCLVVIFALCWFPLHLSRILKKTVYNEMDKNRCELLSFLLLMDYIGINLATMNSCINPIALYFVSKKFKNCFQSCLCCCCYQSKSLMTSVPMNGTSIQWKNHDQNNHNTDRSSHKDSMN

[2] = target: T2, human recombinant ETB receptors (Homo sapiens, UniProt P24530); assay: Inhibition of endothelin binding to membranes from CHO cells carrying human ET receptors (ETB)
T2 construct: expressed in transfected cells; host or cells: CHO cells (microsomal membranes)
T2 sequence (P24530 27-442): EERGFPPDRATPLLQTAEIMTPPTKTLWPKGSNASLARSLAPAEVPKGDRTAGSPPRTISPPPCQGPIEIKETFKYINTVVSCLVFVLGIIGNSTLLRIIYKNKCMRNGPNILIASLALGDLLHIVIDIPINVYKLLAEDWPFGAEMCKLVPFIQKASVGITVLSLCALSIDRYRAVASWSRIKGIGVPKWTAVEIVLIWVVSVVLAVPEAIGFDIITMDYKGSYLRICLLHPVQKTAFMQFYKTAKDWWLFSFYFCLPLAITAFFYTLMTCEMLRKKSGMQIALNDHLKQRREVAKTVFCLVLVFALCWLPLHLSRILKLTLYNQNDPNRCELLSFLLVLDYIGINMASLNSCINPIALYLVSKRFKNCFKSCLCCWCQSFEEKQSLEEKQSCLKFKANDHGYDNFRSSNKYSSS
Description: 1) Inhibition of Endothelin Binding to Membranes from CHO Cells Carrying Human ET Receptors:
For competition binding studies, membranes of CHO cells expressing human recombinant ETA or ETB receptors were used. Microsomal membranes from recombinant CHO cells were prepared and the binding assay made as previously described (Breu V., et al, FEBS Lett 1993; 334:210).
The assay was performed in 200 uL 50 mM Tris/HCl buffer, pH 7.4, including 25 mM MnCl2, 1 mM EDTA and 0.5% (w/v) BSA in polypropylene microtiter plates. […]. […] After two h, the membranes were filtered on, filterplates containing GF/C filters (Unifilterplates from Canberra Packard S. A. Zürich, Switzerland). To each well, 50 uL of scintillation cocktail was added (MicroScint 20, Canberra Packard S. A. Zürich, Switzerland) and the filter plates counted in a microplate counter (TopCount, Canberra Packard S. A. Zürich, Switzerland).
All the test compounds were dissolved, diluted and added in DMSO. […] […].

ETB receptors = target: T3, ETB receptors (Rattus norvegicus, UniProt P21451); assay: Inhibition of sarafotoxin S6c-induced contractions on isolated rat tracheal rings; conditions: for pA2 value ETB: rat tracheal rings, contraction induced by sarafotoxin S6c, 10 min incubation
T3 sequence (P21451 27-442): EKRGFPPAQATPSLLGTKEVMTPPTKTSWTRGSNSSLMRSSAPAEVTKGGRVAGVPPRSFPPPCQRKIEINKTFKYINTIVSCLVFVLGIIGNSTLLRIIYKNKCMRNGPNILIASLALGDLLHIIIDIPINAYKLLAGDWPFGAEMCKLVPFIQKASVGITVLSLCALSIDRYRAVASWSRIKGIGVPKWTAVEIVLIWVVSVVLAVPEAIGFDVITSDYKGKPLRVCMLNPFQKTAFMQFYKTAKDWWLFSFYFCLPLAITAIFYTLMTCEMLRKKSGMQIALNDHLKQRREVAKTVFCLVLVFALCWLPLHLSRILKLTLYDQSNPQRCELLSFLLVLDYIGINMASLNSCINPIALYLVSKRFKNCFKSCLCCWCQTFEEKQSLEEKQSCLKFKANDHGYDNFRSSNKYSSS

ETA receptors = target: T4, ETA receptors (Rattus norvegicus, UniProt P26684); assay: Inhibition of endothelin-1-induced contractions on isolated rat aortic rings; conditions: for pA2 value ETA: rat aortic rings, contraction induced by endothelin-1, 10 min incubation
T4 sequence (P26684 21-426): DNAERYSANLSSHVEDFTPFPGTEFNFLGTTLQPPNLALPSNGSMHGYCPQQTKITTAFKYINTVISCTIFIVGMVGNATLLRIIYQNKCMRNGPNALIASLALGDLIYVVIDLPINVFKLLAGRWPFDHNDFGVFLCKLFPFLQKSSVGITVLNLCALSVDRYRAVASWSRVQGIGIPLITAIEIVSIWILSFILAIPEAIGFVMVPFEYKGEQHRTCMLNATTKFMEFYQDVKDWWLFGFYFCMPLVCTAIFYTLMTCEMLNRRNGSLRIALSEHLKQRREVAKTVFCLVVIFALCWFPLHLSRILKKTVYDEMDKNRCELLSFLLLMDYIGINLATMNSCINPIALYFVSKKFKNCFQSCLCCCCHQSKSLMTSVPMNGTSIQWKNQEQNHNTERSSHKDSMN

[3] = membranes of CHO cells expressing human recombinant ETA receptors, 8 pM [125I]ET-1, 2 h at 20° C.
[4] = membranes of CHO cells expressing human recombinant ETB receptors, 8 pM [125I]ET-1, 2 h at 20° C.

Row | Molecule | IC50 [1, 3] [nM] | IC50 [2] [nM] | IC50 [1] [nM] | other results
1 | COc1ccccc1Oc1c(NS(=O)(=O)c2ccc(C(C)C)cn2)nc(-c2cc(OC)c(OC)c(OC)c2)nc1OCCNS(=O)(=O)c1ccc(C)cc1 [Example 11, 5-i.-propyl-N-[6-(ethoxy-2-(4-methylbenzenesulfonamido))-5-(o-methoxyphenoxy)-2-(3,4,5-trimethoxyphenyl)-4-pyrimidinyl]pyridine-2-sulfonamide] | 5110 | 4.3 |  | pA2 value ETB (ETB receptors): 7.46
2 | COc1ccccc1Oc1c(NS(=O)(=O)c2ccc(C(C)C)cn2)nc(-c2cc(OC)c(OC)c(OC)c2)nc1OCCNS(=O)(=O)c1cccs1 [Example 15, 5-i.-propyl-N-[6-(ethoxy-2-thiophenesulfonamido)-5-(o-methoxyphenoxy)-2-(3,4,5-trimethoxyphenyl)-4-pyrimidinyl]pyridine-2-sulfonamide] | 1320 | 7.3 |  | Kb (ETB receptors): 40.7 nM
3 | CCS(=O)(=O)NCCOc1nc(C(F)(F)F)nc(NS(=O)(=O)c2ccc(C(C)C)cn2)c1Oc1ccccc1OC [Example 55, 5-i.-propyl-N-[6-(2-(ethanesulfonylamino)-ethoxy)-5-(o-methoxyphenoxy)-2-trifluoromethyl-4-pyrimidinyl]pyridine-2-sulfonamide] |  |  |  | pA2 value ETA (ETA receptors): 6.2; pA2 value ETB (ETB receptors): 6.3
4 | COc1ccccc1Oc1c(NS(=O)(=O)c2ccc(C(C)C)cn2)nc(N2CCOCC2)nc1OCCNS(=O)(=O)c1ccc(C)cc1 [Example 60, 5-isopropyl-N-[6-(2-(4-methylbenzenesulfonylamino)-ethoxy)-5-(o-methoxyphenoxy)-2-(N-morpholino)-4-pyrimidinyl]-2-pyridine sulfonamide] |  | 16 | 1440 | pA2 value ETB (ETB receptors): 7.3
5 | CCS(=O)(=O)NCCOc1nc(-c2ncccn2)nc(NS(=O)(=O)c2ccc(C(C)C)cn2)c1Oc1ccccc1OC [Example 70, 5-isopropyl-N-[6-(2-(ethanesulfonylamino)-ethoxy)-5-(o-methoxyphenoxy)-2-(2-pyrimidinyl)-4-pyrimidinyl]-2-pyridine sulfonamide] |  | 2070 | 282 | Kb (ETA receptors): 891 nM
6 | COc1ccccc1Oc1c(NS(=O)(=O)c2ccc(C(C)C)cn2)nc(-c2ccncc2)nc1OCCNS(=O)(=O)C(F)(F)F [Example 74] |  | 934 | 531 | 
7 | CCS(=O)(=O)NCCOc1nc(-c2ccncc2)nc(NS(=O)(=O)c2ccc(C)cn2)c1Oc1ccccc1OC [Example 77, 5-methyl-N-[6-(2-(ethanesulfonylamino)-ethoxy)-5-(o-methoxyphenoxy)-2-(4-pyridyl)-4-pyrimidinyl]-2-pyridine sulfonamide] | 185 |  |  | IC50 [2, 4]: 5400 nM
8 | COc1ccccc1Oc1c(NS(=O)(=O)c2ccc(C)cn2)nc(-c2ccncc2)nc1OCCNS(C)(=O)=O [Example 78, 5-methyl-N-[6-(2-(methanesulfonylamino)-ethoxy)-5-(o-methoxyphenoxy)-2-(4-pyridyl)-4-pyrimidinyl]-2-pyridine sulfonamide] |  | 5460 | 627 | 
9 | CCS(=O)(=O)NCCCOc1nc(C2CC2)nc(NS(=O)(=O)c2ccc(C(C)(C)C)cc2)c1Oc1ccccc1OC [Example 79] |  | > 10000 | 37 | 
10 | CCS(=O)(=O)NCCOc1nc(N2CCOCC2)nc(NS(=O)(=O)c2ccc(C(C)(C)C)cc2)c1Oc1ccccc1OC [Example 81, 4-tert.-butyl-N-[6-(2-ethanesulfonylamino-ethoxy)-2-(N-morpholino)-5-(o-methoxyphenoxy)-pyrimidin-4-yl]-benzenesulfonamide] |  | 1240 | 104 | 
11 | CCS(=O)(=O)NCCOc1nc(N2CCN(C)CC2)nc(NS(=O)(=O)c2ccc(C(C)(C)C)cc2)c1Oc1ccccc1OC [Example 82, 4-tert.-butyl-N-[6-(2-ethanesulfonylamino-ethoxy)-2-(N-(N′-methyl)-piperazinyl)-5-(o-methoxyphenoxy)-pyrimidin-4-yl]-benzene-sulfonamide] |  | 3510 | 311 | 
12 | CCS(=O)(=O)NCCCOc1nc(C2CC2)nc(NS(=O)(=O)c2ccc(C(C)(C)C)cc2)c1Oc1ccccc1OC [Example 87] | 48.1 |  |  | IC50 [2, 4]: 33.1 nM; pA2 value ETA (ETA receptors): 6.52
13 | COc1ccccc1Oc1c(NS(=O)(=O)c2ccc(C(C)(C)C)cc2)nc(C2CC2)nc1OCCCNS(=O)(=O)c1cccs1 [Example 88, 4-tert.-butyl-N-[6-(3-(2-thiophenesulfonylamino)-propoxy)-5-(o-methoxyphenoxy)-2-cyclopropyl-4-pyrimidinyl]-benzene-sulfonamide] |  |  |  | pA2 value ETA (ETA receptors): 6.16; pA2 value ETB (ETB receptors): 7.95
14 | CCS(=O)(=O)NCCCOc1nc(C2CC2)nc(NS(=O)(=O)c2ccc(C(C)C)cn2)c1Oc1ccccc1OC [Example 91, 5-i.-propyl-N-[6-(3-(ethanesulfonylamino)-propoxy)-5-(o-methoxyphenoxy)-2-cyclopropyl-4-pyrimidinyl]-pyridine-2-sulfonamide] | 45.5 |  |  | IC50 [2, 4]: 103 nM
15 | CCCS(=O)(=O)NCCCOc1nc(C2CC2)nc(NS(=O)(=O)c2ccc(C(C)C)cn2)c1Oc1ccccc1OC [Example 92, 5-i.-propyl-N-[6-(3-(propanesulfonylamino)-propoxy)-5-(o-methoxyphenoxy)-2-cyclopropyl-4-pyrimidinyl]-pyridine-2-sulfonamide] | 82.1 |  |  | IC50 [2, 4]: 15 nM
16 | COc1ccccc1Oc1c(NS(=O)(=O)c2ccc(C(C)C)cn2)nc(C2CC2)nc1OCCCNS(=O)(=O)c1cccs1 [Example 93, 5-i.-propyl-N-[6-(3-(2-thiophenesulfonylamino)-propoxy)-5-(o-methoxyphenoxy)-2-cyclopropyl-4-pyrimidinyl]-pyridine-2-sulfonamide] | 22.2 | 3.86 |  | 
17 | COc1ccccc1Oc1c(NS(=O)(=O)c2ccc(C(C)C)cn2)nc(C2CC2)nc1OCCCNS(=O)(=O)c1ccc(C)cc1 [Example 94, 5-i.-propyl-N-[6-(3-(p-toluenesulfonylamino)-propoxy)-5-(o-methoxyphenoxy)-2-cyclopropyl-4-pyrimidinyl]-pyridine-2-sulfonamide] | 77.3 | 18.6 |  | 
18 | p-methyl-N-[6-(ethoxy-2-benzenesulfonamido)-5-(o-methoxyphenoxy)-2-(4-pyridyl)-4-pyrimidinyl]benzene-sulfonamide [Example 2] | 1960 |  |  | IC50 [2, 4]: 1790 nM
